Reference: patent US12252524B2, “GIP/GLP1 co-agonist compounds” (Eli Lilly and Company, priority 2018, dated 2025)
Numbered stars: 1 amine (or outer) side, 2 acyl side, 3 side chain; on linkers, the order of the positions; unused ones are H or OH. Square brackets hold non-standard residues; d marks the D form. Side chains are listed from the residue outwards. Peptide text beside a SMILES is read from it. * marks the point of attachment. C20 diacid = O=C(O)CCCCCCCCCCCCCCCCCCC(=O)*; C18 diacid = O=C(O)CCCCCCCCCCCCCCCCC(=O)*; γGlu = O=C(O)[C@H](CCC(=O)[*:2])N[*:1]; αMeL = CC(C)C[C@](C)(N)C(=O)O; AEEA = NCCOCCOCC(=O)O; Aib = CC(C)(N)C(=O)O

Legend:
[1] = target: T1, human GLP-1R (Homo sapiens, UniProt P43220); test: [125I]-GLP-1 binding (SPA), human GLP-1 receptor; design: expressed in transfected cells; crude membranes; conditions: read-out: hGLP1R Ki, (nM) (SEM, n)
How it was run: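 Crude-membrane binding assay; one membrane prep included 1 mM MgCl2 and 25 units/ml DNAse I during lysis. Assay buffer at pH 7.4 contains 0.1% (w/v) bacitracin and 0.003% (w/v) TWEEN-20. Ki is reported as geometric mean.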

[2] = target: T2, human Gcg receptor (Homo sapiens, UniProt P47871); test: [125I]-Glucagon binding (SPA), human Gcg receptor; conditions: read-out: hGLcgR Ki, nM (SEM, n)
T2 construct: expressed in transfected cells; crude membranes
How it was run: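 Scintillation counts are taken after membranes and WGA beads incubate and settle for 12 hours at room temperature. Buffer is 25 mM HEPES, pH 7.4, with CaCl2, MgCl2, bacitracin and Tween-20. Ki values, from four-parameter IC50 fits, are geometric means over independent days.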

[3] = target: T1, human GLP-1R; test: GLP-1R HEK293 cell membrane [35S]GTPγS binding assay; format: biochemical; design: expressed in transfected cells; host or cells: HEK293 cells expressing human GLP-1R; membranes; conditions: HEK293 cell membranes expressing human GLP-1R, [35S]GTPγS binding; read-out: hGLP1R GTPgS Rel EC50 nM (SEM, n)
Protocol: The GLP-1 receptor is a G-protein coupled receptor that increases GTP-bound Gas upon ligand induced receptor activation. The potency of peptides to stimulate-GLP-1R induced activation of Gac is determined using preparations of purified membranes from HEK293 cells expressing the human GLP-1R. […] The test peptides are solubilized in DMSO and diluted in reaction buffer containing 5 μg of membrane in 20 mM HEPES pH 7.4, 50 mM NaCl, 5 mM MgCl2, 40 μg/ml saponin, 0.1% BSA, and […] ^35S-labeled GTPTS for 30 minutes at room temperature. Reactions are terminated by addition of 0.2% Nonidet β-40 detergent containing rabbit anti-Gas polyclonal antibody and 0.5 mg of anti-rabbit polyvinyltoluene beads. Mixtures are developed for 30 minutes, centrifuged at 80×g for 10 minutes, and counted for 1 minute/well using a MicroBeta TriLux instrument. Peptide concentration-response curves are fit to a four-parameter logistic model to calculate potency as an EC50.

[4] = target: T3, human GIP receptor (Homo sapiens, UniProt P48546); test: [125I]-GIP binding (SPA), human GIP receptor; conditions: read-out: hGIPR Ki, nM (SEM, n)
T3 construct: expressed in transfected cells; crude membranes
T3 sequence (P48546 22-466): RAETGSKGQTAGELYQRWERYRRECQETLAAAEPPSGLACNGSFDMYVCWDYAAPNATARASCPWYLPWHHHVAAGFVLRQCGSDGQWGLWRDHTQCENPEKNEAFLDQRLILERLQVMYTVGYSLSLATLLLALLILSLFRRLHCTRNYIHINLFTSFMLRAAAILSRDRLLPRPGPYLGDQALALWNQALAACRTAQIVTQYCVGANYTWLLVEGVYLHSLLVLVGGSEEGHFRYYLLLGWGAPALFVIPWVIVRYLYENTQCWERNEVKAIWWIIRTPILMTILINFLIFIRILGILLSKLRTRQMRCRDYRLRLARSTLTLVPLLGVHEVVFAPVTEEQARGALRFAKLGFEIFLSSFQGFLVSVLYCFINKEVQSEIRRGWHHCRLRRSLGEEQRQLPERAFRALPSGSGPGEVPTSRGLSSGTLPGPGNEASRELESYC

[5] = target: human GLP-1 receptor (GLP-1R) (Homo sapiens, UniProt P43220); test: cAMP pharmacological functional assay in presence of casein, hGLP-1R; format: cell-based; conditions: HEK293 cells expressing hGLP-1R, 0.1% Casein, geometric mean; read-out: hGLP1R cAMP Rel EC50 nM (SEM, n)
[6] = target: T4, gastric inhibitory peptide receptor (GIPR) (Homo sapiens, UniProt P48546); test: cAMP pharmacological functional assay in presence of casein, hGIPR; format: cell-based; conditions: HEK293 cells expressing hGIPR, 0.1% Casein, geometric mean; read-out: hGIPR cAMP Rel EC50 nM (SEM, n)
T4 sequence (P48546 22-466): T3 sequence (P48546 22-466)

T2 sequence (P47871 26-477): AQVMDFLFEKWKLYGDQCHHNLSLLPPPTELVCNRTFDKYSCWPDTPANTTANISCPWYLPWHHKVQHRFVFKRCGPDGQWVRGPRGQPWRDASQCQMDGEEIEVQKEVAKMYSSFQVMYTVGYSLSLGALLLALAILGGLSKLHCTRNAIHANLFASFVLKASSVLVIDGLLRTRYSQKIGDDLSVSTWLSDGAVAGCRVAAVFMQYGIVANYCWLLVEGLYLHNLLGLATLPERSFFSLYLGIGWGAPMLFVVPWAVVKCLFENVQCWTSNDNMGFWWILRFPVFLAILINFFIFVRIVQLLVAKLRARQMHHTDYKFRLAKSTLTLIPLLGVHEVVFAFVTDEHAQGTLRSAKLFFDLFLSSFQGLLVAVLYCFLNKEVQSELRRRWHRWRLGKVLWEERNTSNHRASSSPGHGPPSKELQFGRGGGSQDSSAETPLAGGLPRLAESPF
T1 sequence (P43220 24-463): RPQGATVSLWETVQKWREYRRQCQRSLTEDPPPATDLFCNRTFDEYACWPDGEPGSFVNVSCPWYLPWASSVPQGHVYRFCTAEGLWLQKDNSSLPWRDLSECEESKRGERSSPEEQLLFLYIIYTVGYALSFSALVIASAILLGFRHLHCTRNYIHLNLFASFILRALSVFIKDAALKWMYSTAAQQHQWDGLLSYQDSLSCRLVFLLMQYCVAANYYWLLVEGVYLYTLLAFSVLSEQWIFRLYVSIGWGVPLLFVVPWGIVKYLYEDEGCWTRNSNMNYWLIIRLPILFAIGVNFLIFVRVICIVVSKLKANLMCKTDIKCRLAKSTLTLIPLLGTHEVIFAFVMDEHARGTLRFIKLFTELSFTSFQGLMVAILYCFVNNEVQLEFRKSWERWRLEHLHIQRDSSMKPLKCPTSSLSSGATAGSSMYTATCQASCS
Chain of human GLP-1 receptor (GLP-1R) (P43220 24-463): as above

Ki [1] [nM]	Ki [2] [nM]	EC50 [3] [nM]	Ki [4] [nM]	EC50 [5] [nM]	EC50 [6] [nM]	SMILES
3.03	> 1370	1.03	0.0578	0.0957	0.043	CC[C@H](C)[C@H](NC(=O)[C@H](CC(C)C)NC(=O)[C@H](Cc1ccc(O)cc1)NC(=O)[C@H](CCC(=O)O)NC(=O)[C@@H](NC(=O)[C@H](Cc1ccccc1)NC(=O)[C@H](C)NC(=O)C(C)(C)NC(=O)[C@H](CCC(N)=O)NC(=O)[C@H](C)NC(=O)[C@H](CCCCNC(=O)COCCOCCNC(=O)COCCOCCNC(=O)CC[C@H](NC(=O)CCCCCCCCCCCCCCCCC(=O)O)C(=O)O)NC(=O)[C@H](CCCCN)NC(=O)[C@H](CC(=O)O)NC(=O)[C@H](CC(C)C)NC(=O)[C@H](CC(C)C)NC(=O)[C@@H](NC(=O)[C@H](CO)NC(=O)[C@H](Cc1ccc(O)cc1)NC(=O)[C@H](CC(=O)O)NC(=O)[C@H](CO)NC(=O)[C@@H](NC(=O)[C@H](Cc1ccccc1)NC(=O)[C@@H](NC(=O)CNC(=O)[C@H](CCC(=O)O)NC(=O)C(C)(C)NC(=O)[C@@H](N)Cc1ccc(O)cc1)[C@@H](C)O)[C@@H](C)O)[C@@H](C)CC)C(C)C)C(=O)N[C@@H](CCC(=O)O)C(=O)NCC(=O)NCC(=O)N1CCC[C@H]1C(=O)N[C@@H](CO)C(=O)N[C@@H](CO)C(=O)NCC(N)=O [Example 298] (H-Y[Aib]EGTFTSDYSILLDKK([AEEA-AEEA-γGlu-C18 diacid])AQ[Aib]AFVEYLIEGGPSSG-NH2; N-terminus assumed)
4.44	> 855	0.561	0.0499	0.191	0.0296	CC[C@H](C)[C@H](NC(=O)[C@H](CC(C)C)NC(=O)[C@H](Cc1ccc(O)cc1)NC(=O)[C@H](CCC(=O)O)NC(=O)[C@@H](NC(=O)[C@H](Cc1ccccc1)NC(=O)[C@H](CCC(=O)O)NC(=O)C(C)(C)NC(=O)[C@H](CCC(N)=O)NC(=O)[C@H](C)NC(=O)[C@H](CCCCNC(=O)COCCOCCNC(=O)COCCOCCNC(=O)CC[C@H](NC(=O)CCCCCCCCCCCCCCCCC(=O)O)C(=O)O)NC(=O)[C@H](CCCCN)NC(=O)[C@H](CC(=O)O)NC(=O)[C@H](CC(C)C)NC(=O)[C@](C)(CC(C)C)NC(=O)[C@@H](NC(=O)[C@H](CO)NC(=O)[C@H](Cc1ccc(O)cc1)NC(=O)[C@H](CC(=O)O)NC(=O)[C@H](CO)NC(=O)[C@@H](NC(=O)[C@H](Cc1ccccc1)NC(=O)[C@@H](NC(=O)CNC(=O)[C@H](CCC(=O)O)NC(=O)C(C)(C)NC(=O)[C@@H](N)Cc1ccc(O)cc1)[C@@H](C)O)[C@@H](C)O)[C@@H](C)CC)[C@@H](C)CC)C(=O)N[C@@H](CCC(=O)O)C(=O)NCC(=O)NCC(=O)N1CCC[C@H]1C(=O)N[C@@H](CO)C(=O)N[C@@H](CO)C(=O)NCC(N)=O [Example 304] (H-Y[Aib]EGTFTSDYSI[αMeL]LDKK([AEEA-AEEA-γGlu-C18 diacid])AQ[Aib]EFIEYLIEGGPSSG-NH2)
0.83	352	0.389	0.025	0.107	0.0225	CC[C@H](C)[C@H](NC(=O)[C@H](CC(C)C)NC(=O)[C@H](Cc1ccc(O)cc1)NC(=O)[C@H](CCC(=O)O)NC(=O)[C@@H](NC(=O)[C@H](Cc1ccccc1)NC(=O)[C@H](C)NC(=O)C(C)(C)NC(=O)[C@H](CCC(N)=O)NC(=O)[C@H](C)NC(=O)[C@H](CCCCNC(=O)COCCOCCNC(=O)COCCOCCNC(=O)CC[C@H](NC(=O)CCCCCCCCCCCCCCCCC(=O)O)C(=O)O)NC(=O)[C@H](CCCCN)NC(=O)[C@H](CC(=O)O)NC(=O)[C@H](CC(C)C)NC(=O)[C@](C)(CC(C)C)NC(=O)[C@@H](NC(=O)[C@H](CO)NC(=O)[C@H](Cc1ccc(O)cc1)NC(=O)[C@H](CC(=O)O)NC(=O)[C@H](CO)NC(=O)[C@@H](NC(=O)[C@H](Cc1ccccc1)NC(=O)[C@@H](NC(=O)CNC(=O)[C@H](CCC(=O)O)NC(=O)C(C)(C)NC(=O)[C@@H](N)Cc1ccc(O)cc1)[C@@H](C)O)[C@@H](C)O)[C@@H](C)CC)[C@@H](C)CC)C(=O)N[C@@H](C)C(=O)NCC(=O)NCC(=O)N1CCC[C@H]1C(=O)N[C@@H](CO)C(=O)N[C@@H](CO)C(=O)NCC(N)=O [Example 305] (H-Y[Aib]EGTFTSDYSI[αMeL]LDKK([AEEA-AEEA-γGlu-C18 diacid])AQ[Aib]AFIEYLIAGGPSSG-NH2)
2.86	> 1040	0.378	0.0349	0.0711	0.0191	CC[C@H](C)[C@H](NC(=O)[C@H](CC(C)C)NC(=O)[C@H](Cc1ccc(O)cc1)NC(=O)[C@H](CCC(=O)O)NC(=O)[C@@H](NC(=O)[C@H](Cc1ccccc1)NC(=O)[C@H](CCC(=O)O)NC(=O)C(C)(C)NC(=O)[C@H](CCC(N)=O)NC(=O)[C@H](C)NC(=O)[C@H](CCCCNC(=O)COCCOCCNC(=O)COCCOCCNC(=O)CC[C@H](NC(=O)CCCCCCCCCCCCCCCCC(=O)O)C(=O)O)NC(=O)[C@H](CCCCN)NC(=O)[C@H](CC(=O)O)NC(=O)[C@H](CC(C)C)NC(=O)[C@](C)(CC(C)C)NC(=O)[C@@H](NC(=O)[C@H](CO)NC(=O)[C@H](Cc1ccc(O)cc1)NC(=O)[C@H](CC(=O)O)NC(=O)[C@H](CO)NC(=O)[C@@H](NC(=O)[C@H](Cc1ccccc1)NC(=O)[C@@H](NC(=O)CNC(=O)[C@H](CCC(=O)O)NC(=O)C(C)(C)NC(=O)[C@@H](N)Cc1ccc(O)cc1)[C@@H](C)O)[C@@H](C)O)[C@@H](C)CC)[C@@H](C)CC)C(=O)N[C@@H](C)C(=O)NCC(=O)NCC(=O)N1CCC[C@H]1C(=O)N[C@@H](CO)C(=O)N[C@@H](CO)C(=O)NCC(N)=O [Example 306] (H-Y[Aib]EGTFTSDYSI[αMeL]LDKK([AEEA-AEEA-γGlu-C18 diacid])AQ[Aib]EFIEYLIAGGPSSG-NH2)
2.63	253	0.536	0.0215	0.172	0.0948	CC[C@H](C)[C@H](NC(=O)[C@H](CC(C)C)NC(=O)[C@H](Cc1ccc(O)cc1)NC(=O)[C@H](CCC(=O)O)NC(=O)[C@@H](NC(=O)[C@H](Cc1ccccc1)NC(=O)[C@H](C)NC(=O)C(C)(C)NC(=O)[C@H](CCC(N)=O)NC(=O)[C@H](C)NC(=O)[C@H](CCCCNC(=O)COCCOCCNC(=O)COCCOCCNC(=O)CC[C@H](NC(=O)CCCCCCCCCCCCCCCCCCC(=O)O)C(=O)O)NC(=O)[C@H](CCCCN)NC(=O)[C@H](CC(=O)O)NC(=O)[C@H](CC(C)C)NC(=O)[C@H](CC(C)C)NC(=O)[C@@H](NC(=O)[C@H](CO)NC(=O)[C@H](Cc1ccc(O)cc1)NC(=O)[C@H](CC(=O)O)NC(=O)[C@H](CO)NC(=O)[C@@H](NC(=O)[C@H](Cc1ccccc1)NC(=O)[C@@H](NC(=O)CNC(=O)[C@H](CCC(=O)O)NC(=O)C(C)(C)NC(=O)[C@@H](N)Cc1ccc(O)cc1)[C@@H](C)O)[C@@H](C)O)[C@@H](C)CC)[C@@H](C)CC)C(=O)N[C@@H](C)C(=O)NCC(=O)NCC(=O)N1CCC[C@H]1C(=O)N[C@@H](CO)C(=O)N[C@@H](CO)C(=O)NCC(N)=O [Example 317] (H-Y[Aib]EGTFTSDYSILLDKK([AEEA-AEEA-γGlu-C20 diacid])AQ[Aib]AFIEYLIAGGPSSG-NH2; N-terminus assumed)
